Publication PMC6149995 (2017)

Key:
[1] = test system: 22AG (DNA, G4) AGGGTTAGGGTTAGGGTTAGGG; test: fluorescence titration (ligand quenching, Hill fit); conditions: 10 mM lithium cacodylate pH 7.2, r.t., 0.5 µM ligand, DNA titrated
[2] = test system: Myc2345-Pu22 (DNA, G4) TGAGGGTGGGTAGGGTGGGTAA; test: as above; conditions: 100 mM K+; 10 mM lithium cacodylate pH 7.2, r.t., 0.5 µM ligand, DNA titrated
[3] = test system: FmycT (DNA, G4) TTGAGGGTGGGTAGGGTGGGTAA; test: FRET melting; conditions: 1 mM K+, 99 mM Li+; 10 mM lithium cacodylate pH 7.2; 1 µM ligand, 0.2 µM DNA; limit stated for all other cases
[4] = test system: 22AG (DNA, G4) AGGGTTAGGGTTAGGGTTAGGG; test: circular dichroism titration; conditions: 10 mM lithium cacodylate pH 7.2, 21 °C, 3 µM DNA
[5] = test system: ds26 (DNA, duplex) CAATCGGATCGAATTCGATCCGATTG; test: fluorescence titration; conditions: K+ buffer; insignificant fluorescence reduction, fit unsuccessful; 0.5 µM ligand
[6] = test system: F21T (DNA, G4) GGGTTAGGGTTAGGGTTAGGG; test: FRET melting; conditions: 90 mM Li+, 10 mM lithium cacodylate pH 7.2, 1 µM ligand, 0.2 µM DNA, limit stated for all other cases
[7] = 100 mM K+, 0-5 equiv ligand, conversion to antiparallel
[8] = 100 mM Na+, slightly reduced helicity, antiparallel kept

| KD ([1]; 100 mM K+) | KD ([1]; 100 mM Na+) | KD [2] | ΔTm [3] [°C] | binding [4, 7] | binding [4, 8] | binding [5] | ΔTm ([6]; 10 mM K+) [°C] | ΔTm ([6]; 10 mM Na+) [°C] | binding ([4]; 100 mM K+, needs more equivalents to rearrange) | SMILES |
| --- | --- | --- | --- | --- | --- | --- | --- | --- | --- | --- |
| (2.2 ± 0.1) × 10^−7 M^−1 | (0.8 ± 0.1) × 10^−7 M^−1 | (1.7 ± 0.1) × 10^−7 M^−1 | < 3 | yes | yes | no | – | – | – | c1ccc(-c2cnc(-c3cccc(-c4cnc(-c5cccc(-c6cnco6)n5)o4)n3)o2)nc1 |
| (3.2 ± 0.1) × 10^−7 M^−1 | (7.2 ± 0.8) × 10^−7 M^−1 | (4.8 ± 0.3) × 10^−7 M^−1 | < 3 | – | yes | no | < 3 | < 3 | yes | c1ccc(-c2cnc(-c3cccc(-c4cnc(-c5ccccn5)o4)n3)o2)nc1 |
| (5.0 ± 0.3) × 10^−7 M^−1 | (0.6 ± 0.0) × 10^−7 M^−1 | (1.9 ± 0.1) × 10^−7 M^−1 | < 3 | yes | yes | no | – | – | – | c1ccc(-c2cnc(-c3cccc(-c4cnc(-c5cccc(-c6cnc(-c7ccccn7)o6)n5)o4)n3)o2)nc1 |
